The MIC is the least concentration at which growth counts as inhibited. A high value points to a need for much substance.

Molecules are shown by their SMILES. ≈ marks a conversion by molar mass, not a printed value.

Assay type in all cases: functional
Experiment [1] has as its system Mycobacterium tuberculosis. Put plainly: Antitubercular activity against isoniazid-resistant Mycobacterium tuberculosis H37Rv isolate 1 by two-fold serial dilution method.
Experiment [2] has as its system Mycobacterium tuberculosis. As to the kind of experiment: Antitubercular activity against rifampicin-resistant Mycobacterium tuberculosis H37Rv isolate 2 by two-fold serial dilution method.
Experiment [3] relates to Mycobacterium tuberculosis. Put plainly: Antitubercular activity against fluoroquinolone-resistant Mycobacterium tuberculosis H37Rv isolate 1 by two-fold serial dilution method.
For experiment [4], the system named is Mycobacterium tuberculosis. As to the kind of experiment: Antitubercular activity against rifampicin-resistant Mycobacterium tuberculosis H37Rv isolate 1 by two-fold serial dilution method.
Experiment [5] relates to Mycobacterium tuberculosis. As to the kind of experiment: Antitubercular activity against isoniazid-resistant Mycobacterium tuberculosis H37Rv isolate 2 by two-fold serial dilution method.

Take `CNC[C@@H](Cc1ccccc1)N1CCN(CCC(c2ccccc2)c2ccccc2)CC1`: the minimum inhibitory concentration (MIC) in experiment [1] worked out at 74 µM (≈ 31.6 µg/mL); in experiment [2], 71 µM (≈ 30.4 µg/mL); in experiment [3], 70 µM (≈ 29.9 µg/mL); in experiment [4], 172 µM (≈ 73.6 µg/mL); in experiment [5] it was 27 µM (≈ 11.5 µg/mL).

As to `CNC[C@@H](Cc1ccccc1)N1CCN(CCC23CC4CC(CC(C4)C2)C3)[C@H](C(C)C)C1`, the MIC is 1.8 µM (≈ 0.788 µg/mL) in experiment [1], 14 µM (≈ 6.13 µg/mL) in experiment [3] and 14 µM (≈ 6.13 µg/mL) in experiment [4].

Consider `CCC(C)[C@@H]1CN([C@@H](CNC)Cc2ccccc2)CCN1CCC12CC3CC(CC(C3)C1)C2` (stereo partly drawn), for which the MIC in experiment [1] is 38 µM (≈ 17.2 µg/mL); in experiment [2] it was 48 µM (≈ 21.7 µg/mL); in experiment [3], 28 µM (≈ 12.6 µg/mL); in experiment [4], 37 µM (≈ 16.7 µg/mL); in experiment [5], 41 µM (≈ 18.5 µg/mL).

`CNC[C@@H](Cc1ccccc1)N1CCN(CCC23CC4CC(CC(C4)C2)C3)CC1`: the minimal inhibitory concentration (MIC) in experiment [1] was found to be 57 µM (≈ 22.6 µg/mL); in experiment [2] it was 83 µM (≈ 32.8 µg/mL); in experiment [3] it was 38 µM (≈ 15 µg/mL); in experiment [4] it was 39 µM (≈ 15.4 µg/mL); in experiment [5] it was 68 µM (≈ 26.9 µg/mL).

(Values after ChEMBL document CHEMBL3792319, “Synthesis and antitubercular activity of 1,2,4-trisubstitued piperazines” (Bioorg Med Chem Lett, 2016).)
